According to ChEMBL document CHEMBL3784934, “N-Alkylpyrido[1',2':1,5]pyrazolo-[4,3-d]pyrimidin-4-amines: A new series of negative allosteric modulators of mGlu1/5 with CNS exposure in rodents” (Bioorg Med Chem Lett, 2016):

What was measured:
Type in all cases: functional, cell-based
[1] = biological target: Metabotropic glutamate receptor 1 (Rattus norvegicus, UniProt P23385); experiment: Negative allosteric modulation of rat mGluR1 expressed in HEK293 cells assessed as inhibition of glutamate induced calcium mobilization by calcium mobilization assay
Sequence of Metabotropic glutamate receptor 1 (Rattus norvegicus, UniProt P23385) (P23385 whole entry): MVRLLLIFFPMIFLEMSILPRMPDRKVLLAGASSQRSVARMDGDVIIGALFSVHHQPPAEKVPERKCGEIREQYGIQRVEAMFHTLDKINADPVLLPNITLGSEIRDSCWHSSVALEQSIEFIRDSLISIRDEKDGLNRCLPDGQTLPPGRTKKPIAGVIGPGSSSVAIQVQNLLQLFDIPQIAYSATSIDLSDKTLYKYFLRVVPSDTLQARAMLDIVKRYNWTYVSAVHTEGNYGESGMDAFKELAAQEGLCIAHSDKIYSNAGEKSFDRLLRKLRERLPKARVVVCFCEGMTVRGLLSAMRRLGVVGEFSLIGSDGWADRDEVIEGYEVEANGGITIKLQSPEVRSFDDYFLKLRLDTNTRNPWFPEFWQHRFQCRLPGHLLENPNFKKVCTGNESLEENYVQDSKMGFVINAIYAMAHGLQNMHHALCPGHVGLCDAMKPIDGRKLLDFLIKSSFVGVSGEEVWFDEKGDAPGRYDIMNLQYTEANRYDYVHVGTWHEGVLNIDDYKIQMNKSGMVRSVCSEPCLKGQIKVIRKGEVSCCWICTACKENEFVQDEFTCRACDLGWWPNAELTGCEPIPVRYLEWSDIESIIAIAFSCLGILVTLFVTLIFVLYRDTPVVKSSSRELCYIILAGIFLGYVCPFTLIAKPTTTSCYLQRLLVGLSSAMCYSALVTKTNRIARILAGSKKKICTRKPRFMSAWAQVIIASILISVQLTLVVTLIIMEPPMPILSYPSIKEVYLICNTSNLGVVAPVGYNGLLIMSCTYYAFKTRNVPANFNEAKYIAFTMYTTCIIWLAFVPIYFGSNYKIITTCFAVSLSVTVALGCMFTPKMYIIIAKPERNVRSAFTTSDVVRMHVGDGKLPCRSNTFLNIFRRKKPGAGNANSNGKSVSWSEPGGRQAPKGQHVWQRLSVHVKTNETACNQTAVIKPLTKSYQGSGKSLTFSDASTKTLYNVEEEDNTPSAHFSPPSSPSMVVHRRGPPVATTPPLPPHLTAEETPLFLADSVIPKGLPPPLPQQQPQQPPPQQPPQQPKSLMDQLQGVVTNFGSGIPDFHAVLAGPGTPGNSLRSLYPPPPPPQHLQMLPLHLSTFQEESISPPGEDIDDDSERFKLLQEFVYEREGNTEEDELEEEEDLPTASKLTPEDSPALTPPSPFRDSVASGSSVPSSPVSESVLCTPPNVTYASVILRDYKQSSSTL

[2] = biological target: Metabotropic glutamate receptor 1 (Rattus norvegicus) (UniProt P23385); experiment: Negative allosteric modulation of rat mGluR1 expressed in HEK293 cells assessed as calcium mobilization at 30 uM by calcium mobilization assay relative to 100 uM glutamate
Sequence of Metabotropic glutamate receptor 1 (Rattus norvegicus) (P23385 19-1199 limits assumed): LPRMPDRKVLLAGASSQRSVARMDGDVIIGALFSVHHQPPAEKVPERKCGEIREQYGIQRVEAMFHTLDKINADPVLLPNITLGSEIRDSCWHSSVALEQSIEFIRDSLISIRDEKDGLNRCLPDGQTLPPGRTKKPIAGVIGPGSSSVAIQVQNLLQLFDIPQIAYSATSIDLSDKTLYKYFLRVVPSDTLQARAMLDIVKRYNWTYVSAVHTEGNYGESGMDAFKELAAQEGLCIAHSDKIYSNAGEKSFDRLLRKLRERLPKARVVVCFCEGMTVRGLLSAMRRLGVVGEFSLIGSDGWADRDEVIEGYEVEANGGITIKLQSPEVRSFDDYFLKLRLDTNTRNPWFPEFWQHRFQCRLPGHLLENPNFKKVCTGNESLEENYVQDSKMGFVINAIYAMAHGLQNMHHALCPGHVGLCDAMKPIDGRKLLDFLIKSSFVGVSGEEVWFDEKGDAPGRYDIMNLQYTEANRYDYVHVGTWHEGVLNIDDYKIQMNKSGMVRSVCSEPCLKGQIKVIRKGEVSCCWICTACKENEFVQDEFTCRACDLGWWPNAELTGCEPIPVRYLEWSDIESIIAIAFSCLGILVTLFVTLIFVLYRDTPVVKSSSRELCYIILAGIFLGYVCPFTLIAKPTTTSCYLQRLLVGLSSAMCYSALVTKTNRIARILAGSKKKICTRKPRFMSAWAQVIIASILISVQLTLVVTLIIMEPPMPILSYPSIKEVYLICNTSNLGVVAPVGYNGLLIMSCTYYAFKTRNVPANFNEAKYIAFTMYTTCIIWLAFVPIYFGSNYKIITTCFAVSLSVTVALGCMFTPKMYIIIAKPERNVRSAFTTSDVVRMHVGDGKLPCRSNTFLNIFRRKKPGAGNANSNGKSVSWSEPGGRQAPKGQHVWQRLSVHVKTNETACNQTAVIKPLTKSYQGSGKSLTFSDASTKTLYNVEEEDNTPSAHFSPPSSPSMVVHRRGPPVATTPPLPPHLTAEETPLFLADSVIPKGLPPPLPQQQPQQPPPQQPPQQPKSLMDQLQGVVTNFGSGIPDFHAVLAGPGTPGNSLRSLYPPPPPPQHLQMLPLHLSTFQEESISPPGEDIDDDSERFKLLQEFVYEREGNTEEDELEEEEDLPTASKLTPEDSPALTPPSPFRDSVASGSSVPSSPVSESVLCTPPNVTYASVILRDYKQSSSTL

[3] = biological target: Metabotropic glutamate receptor 5 (Rattus norvegicus, UniProt P31424); experiment: Negative allosteric modulation of rat mGluR5 expressed in HEK293 cells assessed as inhibition of glutamate induced calcium mobilization by calcium mobilization assay
Sequence of Metabotropic glutamate receptor 5 (Rattus norvegicus, UniProt P31424) (P31424 whole entry): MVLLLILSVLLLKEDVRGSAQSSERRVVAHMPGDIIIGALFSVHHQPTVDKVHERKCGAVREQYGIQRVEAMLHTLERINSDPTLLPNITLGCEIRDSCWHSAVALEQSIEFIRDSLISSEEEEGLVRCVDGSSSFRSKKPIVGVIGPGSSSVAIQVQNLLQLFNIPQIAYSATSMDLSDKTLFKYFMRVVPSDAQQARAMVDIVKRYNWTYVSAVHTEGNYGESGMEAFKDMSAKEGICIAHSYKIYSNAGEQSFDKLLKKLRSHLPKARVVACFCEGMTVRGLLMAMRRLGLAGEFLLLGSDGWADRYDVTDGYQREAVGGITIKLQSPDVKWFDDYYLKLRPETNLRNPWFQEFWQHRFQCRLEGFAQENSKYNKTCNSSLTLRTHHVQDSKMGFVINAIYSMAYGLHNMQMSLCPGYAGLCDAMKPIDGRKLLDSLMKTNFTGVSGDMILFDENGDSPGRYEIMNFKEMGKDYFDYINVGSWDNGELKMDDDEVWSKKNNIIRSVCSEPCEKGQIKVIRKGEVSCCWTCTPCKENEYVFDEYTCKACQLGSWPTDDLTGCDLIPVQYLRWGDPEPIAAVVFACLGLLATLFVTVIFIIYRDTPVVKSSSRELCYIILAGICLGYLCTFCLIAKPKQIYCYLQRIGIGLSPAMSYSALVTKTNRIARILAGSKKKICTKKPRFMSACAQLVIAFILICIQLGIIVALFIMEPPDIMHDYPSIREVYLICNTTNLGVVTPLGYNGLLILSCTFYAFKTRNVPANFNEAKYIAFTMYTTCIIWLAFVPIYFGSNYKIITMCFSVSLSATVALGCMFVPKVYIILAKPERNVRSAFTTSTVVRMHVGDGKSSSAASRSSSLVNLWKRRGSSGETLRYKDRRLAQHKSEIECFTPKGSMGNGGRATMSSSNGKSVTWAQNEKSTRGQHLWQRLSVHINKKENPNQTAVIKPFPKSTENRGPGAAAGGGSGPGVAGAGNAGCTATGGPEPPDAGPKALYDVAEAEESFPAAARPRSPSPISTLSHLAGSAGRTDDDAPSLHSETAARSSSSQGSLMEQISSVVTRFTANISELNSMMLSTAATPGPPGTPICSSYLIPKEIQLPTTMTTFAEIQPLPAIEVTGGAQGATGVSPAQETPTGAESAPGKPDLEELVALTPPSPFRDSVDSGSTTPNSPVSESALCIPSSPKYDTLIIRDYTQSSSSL

[4] = biological target: Metabotropic glutamate receptor 5 (Rattus norvegicus) (UniProt P31424); experiment: Negative allosteric modulation of rat mGluR5 expressed in HEK293 cells assessed as calcium mobilization at 30 uM by calcium mobilization assay relative to 100 uM glutamate
Sequence of Metabotropic glutamate receptor 5 (Rattus norvegicus) (P31424 21-1203 limits assumed): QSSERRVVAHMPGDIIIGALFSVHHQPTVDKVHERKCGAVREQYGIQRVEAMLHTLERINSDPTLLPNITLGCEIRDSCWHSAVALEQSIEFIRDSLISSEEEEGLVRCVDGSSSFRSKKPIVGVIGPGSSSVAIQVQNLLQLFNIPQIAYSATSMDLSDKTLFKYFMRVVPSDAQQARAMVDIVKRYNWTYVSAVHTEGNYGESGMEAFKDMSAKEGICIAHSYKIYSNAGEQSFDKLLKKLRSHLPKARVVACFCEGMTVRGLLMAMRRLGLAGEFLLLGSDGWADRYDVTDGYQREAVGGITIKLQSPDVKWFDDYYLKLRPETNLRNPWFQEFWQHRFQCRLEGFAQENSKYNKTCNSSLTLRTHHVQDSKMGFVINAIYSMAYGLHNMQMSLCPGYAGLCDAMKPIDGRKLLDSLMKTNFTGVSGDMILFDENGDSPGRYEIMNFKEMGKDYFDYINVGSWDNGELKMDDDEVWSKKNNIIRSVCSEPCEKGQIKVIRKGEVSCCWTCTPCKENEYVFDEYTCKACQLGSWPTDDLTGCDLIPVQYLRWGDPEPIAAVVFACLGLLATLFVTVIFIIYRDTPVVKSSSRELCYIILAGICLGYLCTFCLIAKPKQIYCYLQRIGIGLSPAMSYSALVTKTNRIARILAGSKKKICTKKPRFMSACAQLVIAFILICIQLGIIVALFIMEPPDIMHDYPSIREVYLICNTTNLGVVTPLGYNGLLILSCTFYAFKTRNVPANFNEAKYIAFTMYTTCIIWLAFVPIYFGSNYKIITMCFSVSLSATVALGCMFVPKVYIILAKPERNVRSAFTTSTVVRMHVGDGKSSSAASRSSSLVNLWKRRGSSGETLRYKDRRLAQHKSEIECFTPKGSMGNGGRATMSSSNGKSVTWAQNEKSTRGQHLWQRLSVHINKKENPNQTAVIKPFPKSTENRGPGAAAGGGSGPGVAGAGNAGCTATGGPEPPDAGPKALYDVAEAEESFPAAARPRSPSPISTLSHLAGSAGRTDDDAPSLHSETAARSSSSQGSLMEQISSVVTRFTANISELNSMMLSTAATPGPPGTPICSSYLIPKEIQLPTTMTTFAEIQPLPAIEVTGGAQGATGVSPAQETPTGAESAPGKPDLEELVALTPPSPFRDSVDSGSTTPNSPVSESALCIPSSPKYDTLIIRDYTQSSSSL

[5] = biological target: Metabotropic glutamate receptor 1 (Homo sapiens, UniProt Q13255); experiment: Negative allosteric modulation activity at recombinant human mGluR1a expressed in CHO cells assessed as inhibition of L-glutamate-induced intracellular Ca2+ mobilization
[6] = biological target: Metabotropic glutamate receptor 5 (Homo sapiens, UniProt P41594); experiment: Negative allosteric modulation activity at recombinant human mGluR5a expressed in CHO cells assessed as inhibition of L-glutamate-induced intracellular Ca2+ mobilization

SMILES	IC50 [1] [µM]	%max [2] [%]	IC50 ([3]; hek293, read-out: IC50) [µM]	IC50 ([3]; read-out: pIC50 (converted)) [µM]	%max [4] [%]	IC50 ([3]; read-out: IC50) [µM]	IC50 [5] [µM]	IC50 [6] [µM]	pIC50 ([3]; hek293)
OCCSc1nc2c(c(NC3Cc4ccccc4C3)n1)CCCC2							0.028	> 9.1	
C[C@H]1CC[C@H](Nc2nc(N)nc3c2nn2ccccc32)CC1	5.6	0.58		> 31.6		> 30			
Cc1nc(N[C@@H]2C[C@@H]3C[C@H]([C@H]2C)C3(C)C)c2nn3ccccc3c2n1	0.759	2.4							
COCCNc1nc(N[C@H]2CC[C@H](C)CC2)c2nn3ccccc3c2n1	> 30			> 31.6		> 30			
CN(C)c1nc(N[C@H]2CC[C@H](C)CC2)c2nn3ccccc3c2n1	> 30			> 31.6		> 30			
Cc1nc(N[C@H]2CC[C@H](C)CC2)c2nn3ccccc3c2n1		2.6		> 31.6		> 30			
c1ccn2nc3c(NC45CC6CC(CC(C6)C4)C5)ncnc3c2c1	0.148	2.6			4.8	2.36			
CC(C)(C)CCNc1ncnc2c1nn1ccccc21	0.341	1.5			1.3	3.6			
C[C@@H]1[C@H]2C[C@@H](C[C@H]1Nc1ncnc3c1nn1ccccc31)C2(C)C	0.152	2.7	> 10	> 10	9				

Results, then the compound that gave them:

IC50 [1] [µM]	%max [2] [%]	IC50 ([3]; hek293, read-out: IC50) [µM]	IC50 ([3]; read-out: pIC50 (converted)) [µM]	%max [4] [%]	IC50 ([3]; read-out: IC50) [µM]	IC50 [5] [µM]	IC50 [6] [µM]	pIC50 ([3]; hek293)	SMILES
0.232	2.5	> 10	> 10	9.9					c1ccn2nc3c(N[C@H]4C[C@@H]5CC[C@H]4C5)ncnc3c2c1
0.093	2			2	2.27				C[C@H]1CC[C@H](Nc2ncnc3c2nn2ccccc32)CC1
> 10	71.6		> 31.6		> 30				C[C@@H](Nc1ncnc2c1nn1ccccc21)C1CC1
	2.4			18.4	> 10			< 5	C[C@@H](Nc1ncnc2c1nn1ccccc21)C1CCCCC1
	-0.5		> 31.6		> 30				c1ccn2nc3c(NC4CCCCC4)ncnc3c2c1
> 10	39		> 31.6		> 30				FC1(F)CCC(Nc2ncnc3c2nn2ccccc32)CC1
0.225	2	> 10	> 10	20					c1ccn2nc3c(NC4CCCCCC4)ncnc3c2c1
